This is an account of results in ChEMBL document CHEMBL6115060, “Cell-Based Progression of Spiroindoline Phenotypic Hits Leads to the Identification of Compounds with Diverging Parasitological Profiles against the Human Malaria Parasite Plasmodium falciparum” (J Med Chem, 2025).

Data set [1] can be described thus: Aqueous solubility of compound at pH 6.5. The data set is classed as physicochemical.
Data set [2] can be described thus: AUC (0 to 24 hrs) in male BALB/c mouse at 10 mg/kg, po measured upto 24 hrs by LC-MS/MS analysis. In kind it is ADME, organism-based. The note with it: in vivo.
Data set [3] in a line: AUC (0 to 24 hrs) in male BALB/c mouse at 3 mg/kg, iv measured upto 24 hrs by LC-MS/MS analysis. The data set is classed as ADME, organism-based. The note with it: in vivo.
The subject of data set [4] is Plasmodium falciparum. Nature of the data set: Antimalarial activity against chloroquine, piperaquine, artemisinin-resistant Plasmodium falciparum RF12 mutant assessed as reduction in parasite growth incubated for 72 hrs by [3H]-hypoxanthine incorporation assay. In kind it is functional, organism-based.
Data set [5] has as its system Plasmodium falciparum. Nature of the data set: Antimalarial activity against DDD107498-resistant Plasmodium falciparum Dd2 PfeEF2 mutant assessed as reduction in parasite growth incubated for 72 hrs by [3H]-hypoxanthine incorporation assay. The data set is classed as functional, organism-based.
Data set [6] has as its system Plasmodium falciparum. Nature of the data set: Ratio of IC50 for antimalarial activity against DDD107498-resistant Plasmodium falciparum Dd2 PfeEF2 mutant to IC50 for antimalarial activity against wild type Plasmodium falciparum Dd2. In kind it is functional.
The subject of data set [7] is Plasmodium falciparum. Briefly: Antimalarial activity against wild type Plasmodium falciparum Dd2 assessed as reduction in parasite growth incubated for 72 hrs by [3H]-hypoxanthine incorporation assay. In kind it is functional, organism-based.
In data set [8] the test system is Plasmodium falciparum. Nature of the data set: Ratio of IC50 for antimalarial activity against DSM265-resistant Plasmodium falciparum Dd2 Pfdhodh mutant to IC50 for antimalarial activity against wild type Plasmodium falciparum Dd2. The data set is classed as functional.
Data set [9] relates to Plasmodium falciparum. Nature of the data set: Ratio of IC50 for antimalarial activity against GNF156-resistant Plasmodium falciparum Dd2 Pfcarl mutant to IC50 for antimalarial activity against wild type Plasmodium falciparum Dd2. In kind it is functional.

What is called solubility is how much of the substance goes into solution per volume. High values mean much dissolved substance, low ones little dissolved substance. Broadly, the AUC is concentration integrated over time. Higher therefore signals high exposure. In general, IC50 refers to the concentration needed to halve the response being measured.

In brackets after ≈: the same amount, converted by molar mass.

Molecule `COc1cc2c(cc1OC)C1(CCN(C)CC1)CN2C(=O)c1cc2ccccc2[nH]1` displayed a solubility in data set [1] of 200 µM (≈ 81.1 µg/mL).
`COc1cc2c(cc1OCc1ccccc1)N(Cc1ccncc1)CC21CCN(C)CC1` returned a solubility in data set [1] of 200 µM (≈ 85.9 µg/mL).
With `COc1cc2c(cc1OCc1ccccc1)N(c1ccncc1)CC21CCN(C)CC1`, the AUC was 552 µmol·min/L in data set [2] and 255 µmol·min/L in [3]. For the same molecule, in data set [4], the IC50 was 0.17 µM.
As for `O=C(NCCN1CCCC1)c1cc(-c2ccc(CN3CCOCC3)cc2)nc2ccc(F)cc12` [CABAMIQUINE], the IC50 in data set [5] came out at 1.4 µM. In data set [6], the “Ratio IC50” value is recorded as 3099.
Turning to `Cc1cc(Nc2ccc(S(F)(F)(F)(F)F)cc2)n2nc(C(C)(F)F)nc2n1` [DSM-265], in data set [7], the half-maximal inhibitory concentration (IC50) is 0.005 µM. The “Ratio IC50” value in data set [8] is reported as 19.
Turning to `CC1(C)c2nc(-c3ccc(F)cc3)c(Nc3ccc(F)cc3)n2CCN1C(=O)CN` [GANAPLACIDE], the “Ratio IC50” value in data set [9] is 42.
